ChEMBL document CHEMBL5365526 (J Med Chem, 2023)
Active and inactive are the calls of the source. The rule behind the calls is not given here.

Columns and labels:
[1] = target: T1, von Hippel-Lindau disease tumor suppressor/Mitogen-activated protein kinase 7 (Homo sapiens, UniProt Q13164+P40337); experiment: PROTAC activity at VHL/ERK5 in human A-375 cells assessed as induction of ERK5 degradation incubated for 24 hrs by western blot analysis; format: cell-based
Target sequence in this assay (Q13164 whole entry): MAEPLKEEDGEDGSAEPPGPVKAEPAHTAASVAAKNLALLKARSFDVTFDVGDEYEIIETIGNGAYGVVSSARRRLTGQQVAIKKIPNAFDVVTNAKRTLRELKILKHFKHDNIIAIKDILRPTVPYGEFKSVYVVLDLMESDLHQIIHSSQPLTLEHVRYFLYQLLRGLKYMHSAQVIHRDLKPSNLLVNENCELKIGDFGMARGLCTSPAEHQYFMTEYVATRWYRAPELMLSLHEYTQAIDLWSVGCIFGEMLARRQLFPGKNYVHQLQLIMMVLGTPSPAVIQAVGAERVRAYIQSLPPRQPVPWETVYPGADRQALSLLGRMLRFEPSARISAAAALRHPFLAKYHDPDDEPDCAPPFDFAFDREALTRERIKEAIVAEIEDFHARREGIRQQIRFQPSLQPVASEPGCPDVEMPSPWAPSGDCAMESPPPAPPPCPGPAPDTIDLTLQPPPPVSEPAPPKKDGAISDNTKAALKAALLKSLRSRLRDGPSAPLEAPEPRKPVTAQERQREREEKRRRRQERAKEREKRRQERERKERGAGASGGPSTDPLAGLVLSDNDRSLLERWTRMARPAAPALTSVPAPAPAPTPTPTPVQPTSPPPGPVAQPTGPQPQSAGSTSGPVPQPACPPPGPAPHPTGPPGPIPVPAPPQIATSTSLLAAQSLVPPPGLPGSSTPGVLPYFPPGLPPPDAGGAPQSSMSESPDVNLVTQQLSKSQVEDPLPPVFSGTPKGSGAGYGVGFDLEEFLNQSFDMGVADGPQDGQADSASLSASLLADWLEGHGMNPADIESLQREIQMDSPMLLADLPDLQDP
Target sequence in this assay (P40337 whole entry): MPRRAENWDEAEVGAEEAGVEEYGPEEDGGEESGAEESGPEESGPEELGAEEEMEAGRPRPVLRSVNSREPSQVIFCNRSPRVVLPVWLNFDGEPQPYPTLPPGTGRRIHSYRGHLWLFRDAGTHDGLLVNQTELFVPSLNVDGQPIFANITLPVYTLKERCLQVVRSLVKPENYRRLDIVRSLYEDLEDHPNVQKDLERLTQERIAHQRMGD

[2] = target: T1, von Hippel-Lindau disease tumor suppressor/Mitogen-activated protein kinase 7; experiment: PROTAC activity at VHL/ERK5 in human HCT-116 cells assessed as induction of ERK5 degradation at 200 nM incubated for 48 hrs by western blot analysis; format: cell-based
Target sequence in this assay (P40337 whole entry partner): as the sequence (P40337 whole entry) above
Target sequence in this assay (Q13164 2-816 limits assumed): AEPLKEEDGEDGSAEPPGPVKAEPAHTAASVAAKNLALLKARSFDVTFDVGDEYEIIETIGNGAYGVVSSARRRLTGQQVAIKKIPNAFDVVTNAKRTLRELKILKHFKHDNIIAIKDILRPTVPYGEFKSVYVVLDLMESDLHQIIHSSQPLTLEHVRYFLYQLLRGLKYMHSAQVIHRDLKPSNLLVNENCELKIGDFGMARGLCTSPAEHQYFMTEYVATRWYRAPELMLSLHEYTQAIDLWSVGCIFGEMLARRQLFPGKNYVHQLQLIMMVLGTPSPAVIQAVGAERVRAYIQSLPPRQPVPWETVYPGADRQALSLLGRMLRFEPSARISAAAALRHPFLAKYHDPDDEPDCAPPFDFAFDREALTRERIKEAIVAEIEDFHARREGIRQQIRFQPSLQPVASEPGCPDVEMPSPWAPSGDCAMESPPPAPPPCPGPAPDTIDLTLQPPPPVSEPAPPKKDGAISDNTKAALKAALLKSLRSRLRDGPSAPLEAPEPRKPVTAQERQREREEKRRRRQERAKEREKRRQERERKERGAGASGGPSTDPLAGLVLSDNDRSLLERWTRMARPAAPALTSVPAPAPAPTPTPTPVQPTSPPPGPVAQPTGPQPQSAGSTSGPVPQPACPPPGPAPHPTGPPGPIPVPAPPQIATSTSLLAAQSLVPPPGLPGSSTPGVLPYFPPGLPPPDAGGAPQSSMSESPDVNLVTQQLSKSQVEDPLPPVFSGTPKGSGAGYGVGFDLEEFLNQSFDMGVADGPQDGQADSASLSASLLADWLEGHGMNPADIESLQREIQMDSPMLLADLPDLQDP

HCT-116 [3] = experiment: Effect on mirdametinib-induced antitumor activity against human HCT-116 cells assessed as reduction in cell viability at 200 nM incubated for 72 hrs by CCK8 assay; format: functional, cell-based
THP-1 = experiment: Inhibition of M2 macrophage development in PMA-differentiated human THP-1 cells assessed as morphological alterations in macrophages at 0.5 uM incubated for 48 hrs by microscopic analysis; format: functional, cell-based
A-375 [4] = experiment: Effect on mirdametinib-induced antitumor activity against human A-375 cells assessed as reduction in cell viability at 200 nM incubated for 72 hrs by CCK8 assay; format: functional, cell-based
[5] = target: T1, von Hippel-Lindau disease tumor suppressor/Mitogen-activated protein kinase 7; experiment: PROTAC activity at VHL/ERK5 in human PC-3 cells assessed as induction of ERK5 degradation incubated for 12 hrs by western blot analysis; format: cell-based
Target sequence in this assay (Q13164 whole entry): as the sequence (Q13164 whole entry) above
Target sequence in this assay (P40337 whole entry): as the sequence (P40337 whole entry) above

[6] = target: T1, von Hippel-Lindau disease tumor suppressor/Mitogen-activated protein kinase 7; experiment: PROTAC activity at VHL/ERK5 in human HCT-116 cells assessed as induction of ERK5 degradation incubated for 12 hrs by western blot analysis; format: cell-based
Target sequence in this assay (Q13164 whole entry): as the sequence (Q13164 whole entry) above
Target sequence in this assay (P40337 whole entry): as the sequence (P40337 whole entry) above

[7] = target: T1, von Hippel-Lindau disease tumor suppressor/Mitogen-activated protein kinase 7; experiment: PROTAC activity at VHL/ERK5 in human A-375 cells assessed as induction of ERK5 degradation at 200 nM incubated for 72 hrs by western blot analysis; format: cell-based
Target sequence in this assay (P40337 whole entry partner): as the sequence (P40337 whole entry) above
Target sequence in this assay (Q13164 2-816 limits assumed): as the sequence (Q13164 2-816 limits assumed) above

HCT-116 [8] = experiment: Inhibition of cell colony formation in human HCT-116 cells at 0.5 uM cultured in 8% FBS and measured after 7 days in presence of LPS by crystal violet staining based analysis; format: functional; settings: time 7.0 day
[9] = target: T1, von Hippel-Lindau disease tumor suppressor/Mitogen-activated protein kinase 7; experiment: PROTAC activity at VHL/ERK5 in human PC-3 cells assessed as maximal induction of ERK5 degradation incubated for 12 hrs by western blot analysis relative to control; format: cell-based
Target sequence in this assay (P40337 whole entry partner): as the sequence (P40337 whole entry) above
Target sequence in this assay (Q13164 2-816 limits assumed): as the sequence (Q13164 2-816 limits assumed) above

A-375 [10] = experiment: Effect on GDC0994-induced antitumor activity against human A-375 cells assessed as reduction in cell viability at 200 nM incubated for 72 hrs by CCK8 assay; format: functional, cell-based
[11] = target: T1, von Hippel-Lindau disease tumor suppressor/Mitogen-activated protein kinase 7; experiment: PROTAC activity at VHL/ERK5 in human A-375 cells assessed as induction of ERK5 degradation incubated for 12 hrs by western blot analysis; format: cell-based
Target sequence in this assay (Q13164 whole entry): as the sequence (Q13164 whole entry) above
Target sequence in this assay (P40337 whole entry): as the sequence (P40337 whole entry) above

A-375 [12] = experiment: Effect on cell migration in human A-375 cells at 0.01 to 1 uM incubated for 24 hrs by crystal violet staining based transwell assay; format: functional; settings: dose 0.01-1 µM
HCT-116 [13] = experiment: Effect on GDC0994-induced antitumor activity against human HCT-116 cells assessed as reduction in cell viability at 200 nM incubated for 72 hrs by CCK8 assay; format: functional, cell-based
[14] = target: von Hippel-Lindau disease tumor suppressor/Leucine-rich repeat serine/threonine-protein kinase 2 (Homo sapiens) (UniProt Q5S007+P40337); experiment: PROTAC activity at VHL/LRRK2 in human A-375 cells assessed as induction of LRRK2 degradation at 6 to 500 nM incubated for 12 hrs by western bot analysis; format: cell-based; settings: dose 6-500 nM
[15] = Inhibition of M2 macrophage development in PMA-differentiated human THP-1 cells assessed as CD206 surface expression at 0.5 uM incubated for 48 hrs by flow cytometry (reference value: 53.4%); format: functional; design: scale not given: the % may be the effect or the level left
MDA-MB-231 = experiment: Antiproliferative activity against human MDA-MB-231 cells assessed as reduction in cell viability incubated for 72 hrs by CCK8 assay; format: functional, cell-based
A-375 [16] = experiment: Inhibition of cell colony formation in human A-375 cells at 0.5 uM cultured in 8% FBS and measured after 7 days in presence of LPS by crystal violet staining based analysis; format: functional; settings: time 7.0 day
HepG2 = experiment: Antiproliferative activity against human HepG2 cells assessed as reduction in cell viability incubated for 72 hrs by CCK8 assay; format: functional, cell-based
[17] = target: T1, von Hippel-Lindau disease tumor suppressor/Mitogen-activated protein kinase 7; experiment: PROTAC activity at VHL/ERK5 in human A-375 cells assessed as induction of ERK5 degradation at 100 nM incubated for 24 hrs by western blot analysis; format: cell-based
Target sequence in this assay (P40337 whole entry partner): as the sequence (P40337 whole entry) above
Target sequence in this assay (Q13164 2-816 limits assumed): as the sequence (Q13164 2-816 limits assumed) above

[18] = target: T1, von Hippel-Lindau disease tumor suppressor/Mitogen-activated protein kinase 7; experiment: PROTAC activity at VHL/ERK5 in human HCT-116 cells assessed as maximal induction of ERK5 degradation incubated for 12 hrs by western blot analysis relative to control; format: cell-based
Target sequence in this assay (P40337 whole entry partner): as the sequence (P40337 whole entry) above
Target sequence in this assay (Q13164 2-816 limits assumed): as the sequence (Q13164 2-816 limits assumed) above

HCT-116 [19] = experiment: Inhibition of M2 macrophage development in human HCT-116 cells assessed as inhibition of cell colony formation at 0.5 uM cultured in macrophage M0 medium and measured after 7 days in presence of LPS by crystal violet staining based analysis; format: functional; settings: time 7.0 day

DC50 [1]: ~17 nM
Activity [2]: Active
DC50 [5]: 23.5 nM
DC50 [6]: 5.6 nM
Activity [7]: Active
Activity [9]: 89.4%
DC50 [11]: 41.4 nM
Activity [14]: inactive
Activity [17]: Active
Activity [18]: 88.9%
SMILES: COc1cc(N2CCN(CCCCCCC(=O)N[C@H](C(=O)N3C[C@H](O)C[C@H]3C(=O)N[C@@H](C)c3ccc(-c4scnc4C)cc3)C(C)(C)C)CC2)ccc1Nc1ncc2c(n1)N(C)c1ccccc1C(=O)N2C
Activity (HCT-116 [3]): inactive
inhibition (THP-1): Active
Activity (A-375 [4]): inactive
inhibition (HCT-116 [8]): inactive
Activity (A-375 [10]): inactive
Activity (A-375 [12]): inactive
Activity (HCT-116 [13]): inactive
Activity [15]: 41.3%
Activity (MDA-MB-231): inactive
inhibition (A-375 [16]): inactive
Activity (HepG2): inactive
inhibition (HCT-116 [19]): Active
